Test results from patent US11161844B2, “Cyclic substituted imidazo[4,5-c]quinoline derivatives” (Pfizer Inc., priority 2017, dated 2021).

What was measured:
[1] = biological target: LRRK2, WT (GST-tagged truncated LRRK2) (Homo sapiens (Human), UniProt Q5S007); experiment: LRRK2 kinase assay (Lantha Screen), wild type; type: biochemical; conditions: 100 nM LRRKtide, 1 mM ATP, 2 μg/mL enzyme; geometric mean of 2-4 determinations unless otherwise indicated
Protocol: (§1) LRRK2 kinase activity was measured using Lantha Screen technology from Invitrogen. GST-tagged truncated LRRK2 from Invitrogen (Cat #PV4874) was incubated with a fluorescein-labeled peptide substrate based upon ezrin/radixin/moesin (ERM), also known as LRRKtide (Invitrogen cat #PR8976A), in the presence of a dose response of compound. Upon completion, the assay was stopped and detected with a terbium labeled anti-phospho-ERM antibody (Invitrogen, cat #PR8975A). The assay was carried out under the following protocol: The compound dose response was prepared by diluting compound to a top concentration of 0.3 mM in 100% DMSO and serial diluted by half-log in DMSO to give an 11 point curve, 100× final assay concentration. Using Echo acoustic dispensing, 60 nL of compound was transferred to a low volume Corning 384-well assay plate. 3 μL of a working solution of substrate (200 nM LRRKtide, 2 mM ATP) prepared in assay buffer (50 mM HEPES, pH 7.5, 3 mM MgCl2, with 2 mM DTT and 0.01% Brij35 added fresh) was added to the 60 nL compound assay plate. The kinase reaction was started with 3 μL of a working solution of LRRK2 enzyme at a concentration of 4 μg/mL. The final reaction concentrations were 100 nM LRRKtide, 1 mM ATP, 2 μg/mL LRRK2 enzyme and a compound dose response with a top dose of 3 μM. The reaction was allowed to progress at room temperature for 30 minutes and then stopped with the addition of 6 μL of detection buffer (20 mM Tris pH 7.6, 0.01% NP-40, 6 mM EDTA with 2 nM terbium labeled anti-phospho-ERM). After an incubation of 1 hour at room temperature, the plate was read on an Envision with an excitation wavelength of 340 nm and a reading emission at both 520 nm and 495 nm. The ratio of the 520 nm and 495 nm emission was used to analyze the data. Inhibition of mutant G2019S LRRK2 (Invitrogen cat #PV4881) was measured in the exact same method. All final concentrations of substrate ATP and enzyme were the same.

[2] = biological target: mutant G2019S LRRK2 (Homo sapiens (Human), UniProt Q5S007, G2019S); experiment: LRRK2 kinase assay (Lantha Screen), mutant G2019S; type: biochemical; conditions: 100 nM LRRKtide, 1 mM ATP, 2 μg/mL enzyme; single determination unless otherwise indicated
Protocol: as §1

Sequence of mutant G2019S LRRK2 (Q5S007 970-2527 G2019S): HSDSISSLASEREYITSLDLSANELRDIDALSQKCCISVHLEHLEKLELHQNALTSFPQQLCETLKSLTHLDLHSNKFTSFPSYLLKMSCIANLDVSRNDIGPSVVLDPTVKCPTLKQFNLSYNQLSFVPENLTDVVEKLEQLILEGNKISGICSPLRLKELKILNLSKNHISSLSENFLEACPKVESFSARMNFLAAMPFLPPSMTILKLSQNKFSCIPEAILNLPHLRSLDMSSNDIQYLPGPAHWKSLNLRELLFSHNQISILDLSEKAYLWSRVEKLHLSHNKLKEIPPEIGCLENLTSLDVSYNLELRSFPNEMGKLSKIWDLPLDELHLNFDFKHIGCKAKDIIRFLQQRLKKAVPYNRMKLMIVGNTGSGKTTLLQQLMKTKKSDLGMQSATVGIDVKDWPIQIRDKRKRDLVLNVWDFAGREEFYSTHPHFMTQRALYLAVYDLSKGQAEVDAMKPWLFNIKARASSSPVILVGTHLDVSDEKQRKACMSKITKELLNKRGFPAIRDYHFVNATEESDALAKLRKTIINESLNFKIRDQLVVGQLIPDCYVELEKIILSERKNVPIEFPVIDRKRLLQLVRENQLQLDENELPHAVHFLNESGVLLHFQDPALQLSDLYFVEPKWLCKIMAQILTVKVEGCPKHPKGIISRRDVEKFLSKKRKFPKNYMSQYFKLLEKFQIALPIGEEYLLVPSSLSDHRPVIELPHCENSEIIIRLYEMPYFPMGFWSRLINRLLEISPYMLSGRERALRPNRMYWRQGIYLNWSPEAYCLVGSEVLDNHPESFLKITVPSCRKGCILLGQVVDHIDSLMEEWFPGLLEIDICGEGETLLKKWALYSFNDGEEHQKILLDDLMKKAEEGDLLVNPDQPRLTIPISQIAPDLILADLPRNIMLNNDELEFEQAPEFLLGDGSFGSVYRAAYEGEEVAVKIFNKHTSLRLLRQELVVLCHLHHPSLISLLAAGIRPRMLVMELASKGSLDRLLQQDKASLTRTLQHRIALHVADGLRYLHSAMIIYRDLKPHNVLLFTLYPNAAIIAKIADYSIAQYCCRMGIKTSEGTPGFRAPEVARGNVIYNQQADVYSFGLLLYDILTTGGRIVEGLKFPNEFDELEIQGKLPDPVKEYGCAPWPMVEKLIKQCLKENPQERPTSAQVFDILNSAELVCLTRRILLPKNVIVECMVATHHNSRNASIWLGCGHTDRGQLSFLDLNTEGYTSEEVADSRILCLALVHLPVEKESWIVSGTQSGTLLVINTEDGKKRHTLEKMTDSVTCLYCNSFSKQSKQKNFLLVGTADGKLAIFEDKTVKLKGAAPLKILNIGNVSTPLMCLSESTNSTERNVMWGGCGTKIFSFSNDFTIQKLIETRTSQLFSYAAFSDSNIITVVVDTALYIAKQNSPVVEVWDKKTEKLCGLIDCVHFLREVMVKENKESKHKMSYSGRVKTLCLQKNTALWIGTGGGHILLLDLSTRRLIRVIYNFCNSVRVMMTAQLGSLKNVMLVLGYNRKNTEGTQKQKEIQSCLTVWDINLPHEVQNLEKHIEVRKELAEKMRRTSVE
Sequence of LRRK2, WT (GST-tagged truncated LRRK2) (Q5S007 970-2527): as the sequence (Q5S007 970-2527 G2019S) above, with S1050G counted along it

Compound | IC50 [1] [µM] | IC50 [2] [µM]
C[C@@H]1C[C@H](n2c3c(cnc4ccc(C#N)cc43)nc2[C@H]2C[C@@H](F)C2)CCO1 [Example 19, 2-(cis-3-fluorocyclobutyl)-1-[(2R,4R)-2-methyltetrahydro-2H-pyran-4-yl]-1H-imidazo[4,5-c]quinoline-8-carbonitrile] | 0.0161 | 0.0124
C[C@@H]1C[C@H](n2c(C3CCC(F)C3)nc3cnc4ccc(C#N)cc4c32)CCO1 (stereo partly drawn) [Example 14, 2-[(cis)-3-fluorocyclopentyl]-1-[(2R,4R)-2-methyltetrahydro-2H-pyran-4-yl]-1H-imidazo[4,5-c]quinoline-8-carbonitrile] | 0.0152 | 0.0108
N#CC[C@@H]1C[C@H](n2c3c(cnc4ccc(F)cc43)nc2[C@H]2CC[C@@H](F)CC2)CCO1 [Example 29, {(2S,4R)-4-[8-fluoro-2-(cis-4-fluorocyclohexyl)-1H-imidazo[4,5-c]quinolin-1-yl]tetrahydro-2H-pyran-2-yl}acetonitrile] | 0.00653 | 0.00463
CN1CC[C@@H](n2c3c(cnc4ccc(C#N)cc43)nc2[C@H]2C[C@@H](F)C2)C1 [Example 24, 2-(cis-3-fluorocyclobutyl)-1-[(3R)-1-methylpyrrolidin-3-yl]-1H-imidazo[4,5-c]quinoline-8-carbonitrile] | 0.00527 | 0.0224
N#CC[C@@H]1C[C@H](n2c(C3CC(F)(F)C3)nc3cnc4ccc(Cl)cc4c32)CCO1 (single isomer, unassigned) [Example 27, {cis-4-[8-chloro-2-(3,3-difluorocyclobutyl)-1H-imidazo[4,5-c]quinolin-1-yl]tetrahydro-2H-pyran-2-yl}acetonitrile] | 0.012 | 0.0122
C[C@@H]1C[C@H](n2c3c(cnc4ccc(C#N)cc43)nc2[C@H]2CC[C@@H](F)CC2)CCO1 [Example 15, 2-(cis-4-fluorocyclohexyl)-1-[(2R,4R)-2-methyltetrahydro-2H-pyran-4-yl]-1H-imidazo[4,5-c]quinoline-8-carbonitrile] | 0.00675 | 0.0083
CN1CC[C@@H](n2c3c(cnc4ccc(C#N)cc43)nc2[C@H]2CC[C@@H](F)CC2)C1 [Example 23, 2-(cis-4-fluorocyclohexyl)-1-[(3R)-1-methylpyrrolidin-3-yl]-1H-imidazo[4,5-c]quinoline-8-carbonitrile] | 0.0109 | 0.033
C[C@@H]1C[C@H](n2c(C3CCOCC3)nc3cnc4ccc(Cl)cc4c32)CCO1 [Example 7, 8-chloro-1-[(2R,4R)-2-methyltetrahydro-2H-pyran-4-yl]-2-(tetrahydro-2H-pyran-4-yl)-1H-imidazo[4,5-c]quinoline] | 0.0163 | 0.0182
CN1CC(n2c(C3CCC(F)C3)nc3cnc4ccc(C#N)cc4c32)C(F)(F)C1 (stereo not drawn) [Example 58, 1-(4,4-difluoro-1-methylpyrrolidin-3-yl)-2-(3-fluorocyclopentyl)-1H-imidazo[4,5-c]quinoline-8-carbonitrile] | 0.0122 | 0.0212
CC1(C)CC(n2c(C3CCC(F)C3)nc3cnc4ccc(C#N)cc4c32)CCO1 (stereo not drawn) [Example 40, 1-(2,2-dimethyltetrahydro-2H-pyran-4-yl)-2-(3-fluorocyclopentyl)-1H-imidazo[4,5-c]quinoline-8-carbonitrile] | 0.00714 | 0.00433
C[C@@H]1C[C@H](n2c(C3CC(C)(F)C3)nc3cnc4ccc(Cl)cc4c32)CCO1 (stereo partly drawn) [Example 3, 8-chloro-2-(cis-3-fluoro-3-methylcyclobutyl)-1-[(2R,4R)-2-methyltetrahydro-2H-pyran-4-yl]-1H-imidazo[4,5-c]quinoline] | 0.00681 | 0.00544
C[C@@H]1C[C@H](n2c(C3CCC(F)C3)nc3cnc4ccc(C#N)cc4c32)CCO1 (single isomer, unassigned) [Example 13] | 0.00629 | 0.00384
C[C@@H]1C[C@H](n2c(C3CCCCC3(F)F)nc3cnc4ccc(C#N)cc4c32)CCO1 (stereo partly drawn) [Example 20, 2-(2,2-difluorocyclohexyl)-1-[(2R,4R)-2-methyltetrahydro-2H-pyran-4-yl]-1H-imidazo[4,5-c]quinoline-8-carbonitrile] | 0.0177 | 0.0104
N#CCC1CC(n2c([C@H]3CCOC3)nc3cnc4ccc(Cl)cc4c32)CCO1 (stereo partly drawn) [Example 30, [cis-4-{8-chloro-2-[(3R)-tetrahydrofuran-3-yl]-1H-imidazo[4,5-c]quinolin-1-yl}tetrahydro-2H-pyran-2-yl]acetonitrile] | 0.00606 | 0.00302
CO[C@H]1C[C@@H](c2nc3cnc4ccc(Cl)cc4c3n2[C@@H]2CCO[C@H](C)C2)C1 [Example 6, 8-chloro-2-(cis-3-methoxycyclobutyl)-1-[(2R,4R)-2-methyltetrahydro-2H-pyran-4-yl]-1H-imidazo[4,5-c]quinoline] | 0.0191 | 0.0119
